Data from patent publication US12441768B2, “Compositions and methods for treating endometriosis” (EndoMet Biosciences, Inc., priority 2018, dated 2025).
Where a SMILES comes first, the peptide text is derived from it.

Target: T1, β-catenin (Homo sapiens, UniProt P35222)
T1 sequence (P35222 1-781): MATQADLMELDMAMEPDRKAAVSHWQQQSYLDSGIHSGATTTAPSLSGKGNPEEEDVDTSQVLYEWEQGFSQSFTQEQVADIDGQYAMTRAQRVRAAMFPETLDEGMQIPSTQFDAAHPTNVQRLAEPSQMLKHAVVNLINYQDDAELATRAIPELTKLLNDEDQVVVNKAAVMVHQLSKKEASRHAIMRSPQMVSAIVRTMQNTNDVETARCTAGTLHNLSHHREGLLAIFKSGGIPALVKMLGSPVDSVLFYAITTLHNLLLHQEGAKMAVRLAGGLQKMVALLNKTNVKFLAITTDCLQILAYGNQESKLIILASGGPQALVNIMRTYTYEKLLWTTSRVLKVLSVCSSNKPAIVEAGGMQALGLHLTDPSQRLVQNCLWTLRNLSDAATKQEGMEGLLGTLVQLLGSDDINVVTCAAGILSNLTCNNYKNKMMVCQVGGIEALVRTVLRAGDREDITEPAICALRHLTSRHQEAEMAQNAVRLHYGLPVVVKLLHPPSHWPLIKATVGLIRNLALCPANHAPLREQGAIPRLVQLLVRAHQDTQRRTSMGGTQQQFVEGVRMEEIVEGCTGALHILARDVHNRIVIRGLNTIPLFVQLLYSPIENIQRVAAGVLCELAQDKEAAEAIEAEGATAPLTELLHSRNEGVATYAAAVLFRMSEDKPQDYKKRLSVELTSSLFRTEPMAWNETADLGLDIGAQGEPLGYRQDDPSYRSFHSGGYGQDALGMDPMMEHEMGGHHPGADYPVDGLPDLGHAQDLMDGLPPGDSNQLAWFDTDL
Assay: KD50 measurement using competitive fluorescence polarization (FP) with labelled TCF4
Format: binding
Conditions: fluorescence polarization, β-catenin; for Kd: read-out: β-Cat FP KD
Excerpt: Fluorescence polarization (FP) is another method used to analyze protein-ligand interactions. This methodology measures the change in fluorescence light emitted by a labelled compound free vs. conjugated to another compound in solution. Upon binding of the fluorescent molecule to a complex, polarization increases because of limited rotation of the fluorescent tracer. Competitive FP is often utilized in drug screens as it is formatted for high throughput screens in a plate format. This immunoassay is performed by introducing a non-conjugated drug to compete for binding to the labelled competitor-ligand complex, leading to a reduction in polarization. TCF4 protein is utilized for the competitive assay as (1) this protein influences the full activation of the Wnt pathway and (2) shares homology with the β-catenin inhibitors. Exemplary methodology is described in Example 13. Data were analyzed and plotted in Microsoft Excel (Microsoft, Redmond, WA).
5 nM of labelled TCF4 protein was added to solution of 100 nM of β-catenin and incubated at room temperature in 96-well plates (Greiner 96 Flat transparent plates, Millipore Sigma, Carlsbad CA). Varying concentrations of β-catenin inhibitor candidate (SEQ ID NO: 404) were then added in a series of serial dilutions from 10 nM to 30 uM of inhibitor in different wells of the plate. The fluorescence polarization was read by Infinite M1000 (Tecan, Baldwin Park CA) at excitation wavelength of 470 nm and measured at emission wavelength of 520 nm. […] The experiments were performed three times and data were analyzed and plotted in Microsoft Excel (Microsoft, Redmond, WA).

Structure (SMILES) | β-Cat FP Hill slope | Kd [nM]
CC[C@H](NC(=O)[C@@H](NC(=O)[C@H](CC(C)C)NC(=O)[C@H](CC1CCCCC1)NC(=O)[C@H](Cc1c[nH]c2ccccc12)NC(=O)[C@H](CCCCN)NC(=O)COCCOCCNC(=O)[C@H](CCCNC(=N)N)NC(=O)[C@H](CCCNC(=N)N)NC(=O)[C@H](CCCNC(=N)N)NC(=O)[C@H](CCC(N)=O)NC(=O)[C@H](CCCNC(=N)N)NC(=O)[C@H](CCCNC(=N)N)NC(=O)[C@H](CCCCN)NC(=O)[C@H](CCCCN)NC(=O)[C@@H](N)CCCNC(=N)N)[C@@H](C)CC)C(=O)N[C@@H](C)C(=O)N[C@@H](Cc1c[nH]c2ccccc12)C(=O)N[C@@H](CC(=O)O)C(=O)O [282/493] (HELM PEPTIDE1{R.K.K.R.R.Q.R.R.R.[O=C(COCCOCCN[*:1])[*:2]].K.W.[Cha].L.I.[Abu].A.W.D}$$$$V2.0) | 0.77 | –
CC[C@H](C)[C@@H]1NC(=O)[C@H](CC(C)C)NC(=O)[C@H](Cc2ccccc2)NC(=O)[C@H](Cc2c[nH]c3ccccc23)NC(=O)[C@@H](N)CCCCNC(=O)CC[C@@H](C(=O)N[C@@H](Cc2ccccc2)C(=O)N[C@@H](Cc2c[nH]c3ccccc23)C(=O)NCC(=O)O)NC1=O [compound 229] (HELM PEPTIDE1{K.W.F.L.I.E.F.W.G}$PEPTIDE1,PEPTIDE1,1:R3-6:R3$$$V2.0) | 0.43 | 1000 to 10000
CC[C@H](C)[C@H](NC(=O)[C@H](CO)NC(=O)[C@H](CCC(=O)O)NC(=O)[C@@H]1CCCN1C(=O)[C@H](CC(C)C)NC(=O)[C@H](CCCNC(=N)N)NC(=O)CCNC(C)=O)C(=O)N[C@@H](CC(C)C)C(=O)N[C@@H](CC(=O)O)C(=O)N[C@@H](CCC(=O)O)C(=O)N[C@@H](Cc1c[nH]cn1)C(=O)N[C@@H](Cc1c[nH]c2ccccc12)C(=O)N[C@@H](CCC(N)=O)C(=O)N[C@@H](CCCNC(=N)N)C(=O)N[C@H](C(=O)N[C@@H](Cc1c[nH]c2ccccc12)C(=O)N1CCC[C@H]1C(N)=O)C(C)C [compound 411] (HELM PEPTIDE1{[ac].[bAla].R.L.P.E.S.I.L.D.E.H.W.Q.R.V.W.P.[am]}$$$$V2.0) | 0.7 | 1000 to 10000
CC[C@H](C)[C@H](NC(=O)[C@H](CC(C)C)NC(C)=O)C(=O)N[C@@H](CO)C(=O)N[C@@H](Cc1ccccc1)C(=O)N[C@@H](Cc1c[nH]c2ccccc12)C(=O)NCC(=O)O [compound 238] (Ac-LISFWG-OH) | 0.7 | 10000 to 30000
CC[C@H](C)[C@@H]1NC(=O)[C@@H](NC(=O)[C@H](CCC(N)=O)NC(=O)[C@H](C)N(C)C(=O)[C@H](Cc2c[nH]c3ccccc23)NC(=O)CCNC(C)=O)CCCCNC(=O)CC[C@@H](C(=O)N[C@@H](Cc2c[nH]cn2)C(=O)N[C@H](C(=O)N[C@@H](CCC(N)=O)C(=O)N[C@@H](CCCNC(=N)N)C(=O)N[C@H](C(=O)N[C@@H](Cc2c[nH]c3ccccc23)C(=O)NCC(N)=O)C(C)C)C2CCCCC2)NC(=O)[C@H](CC(=O)O)NC(=O)[C@H](CC(C)C)NC1=O [compound 419] (HELM PEPTIDE1{[ac].[bAla].W.[meA].Q.K.I.L.D.E.H.[O=C([C@@H](N[*:1])C1CCCCC1)[*:2]].Q.R.V.W.G.[am]}$PEPTIDE1,PEPTIDE1,6:R3-10:R3$$$V2.0) | 0.7 | < 400
CC[C@H](C)[C@H](NC(=O)[C@H](CC(C)C)NC(=O)[C@H](C)NC(=O)[C@H](Cc1c[nH]c2ccccc12)NC(=O)[C@@H](N)CCSC)C(=O)N[C@@H](CO)C(=O)N[C@@H](Cc1ccccc1)C(=O)N[C@@H](Cc1c[nH]c2ccccc12)C(=O)NCC(=O)O [compound 13] (H-MWALISFWG-OH) | 0.86 | 400 to 1000
CC(C)C[C@@H]1NC(=O)[C@H](C2CCCCC2)NC(=O)[C@@H](NC(=O)[C@H](CCC(N)=O)NC(=O)[C@H](C)N(C)C(=O)[C@@H](N)Cc2c[nH]c3ccccc23)CCCCNC(=O)CC[C@@H](C(=O)N[C@@H](Cc2c[nH]cn2)C(=O)N[C@H](C(=O)N[C@@H](CCC(N)=O)C(=O)N[C@@H](CCCNC(=N)N)C(=O)N[C@H](C(=O)N[C@@H](Cc2c[nH]c3ccccc23)C(=O)NCC(N)=O)C(C)C)C(C)C)NC(=O)[C@H](CC(=O)O)NC1=O [compound 420] (HELM PEPTIDE1{W.[meA].Q.K.[O=C([C@@H](N[*:1])C1CCCCC1)[*:2]].L.D.E.H.V.Q.R.V.W.G.[am]}$PEPTIDE1,PEPTIDE1,4:R3-8:R3$$$V2.0) | 0.7 | 400 to 1000
CC[C@H](C)[C@@H]1NC(=O)[C@H](CC(C)C)NC(=O)[C@H](Cc2ccccc2)NC(=O)[C@@H](N)CCCCNC(=O)C[C@@H](C(=O)O)NC(=O)[C@H](Cc2c[nH]c3ccccc23)NC(=O)[C@H](Cc2ccccc2)NC(=O)[C@H](C)NC1=O [compound 253] (HELM PEPTIDE1{K.F.L.I.A.F.W.D}$PEPTIDE1,PEPTIDE1,1:R3-8:R3$$$V2.0) | – | > 30000
CC[C@H](C)[C@H](NC(=O)[C@H](CC(C)C)NC(=O)[C@H](Cc1ccccc1)NC(=O)[C@H](Cc1c[nH]c2ccccc12)NC(=O)[C@@H](N)CCSC)C(=O)N[C@@H](C)C(=O)N[C@@H](Cc1ccccc1)C(=O)N[C@@H](Cc1c[nH]c2ccccc12)C(=O)NCC(=O)O [compound 10] (H-MWFLIAFWG-OH) | 0.73 | 1000 to 10000
CC[C@H](C)[C@H](NC(=O)[C@H](CO)NC(=O)[C@H](CCC(N)=O)NC(=O)[C@H](C)N(C)C(=O)[C@H](Cc1c[nH]c2ccccc12)NC(C)=O)C(=O)N[C@@H](CC(C)C)C(=O)N[C@@H](CC(=O)O)C(=O)N[C@H]1CCC(=O)NCCCC[C@@H](C(=O)N[C@H](C(=O)N[C@@H](Cc2c[nH]c3ccccc23)C(=O)NCC(N)=O)C(C)C)NC(=O)[C@H](CCC(N)=O)NC(=O)[C@H](C(C)C)NC(=O)[C@H](Cc2c[nH]cn2)NC1=O [compound 437] (HELM PEPTIDE1{[ac].W.[meA].Q.S.I.L.D.E.H.V.Q.K.V.W.G.[am]}$PEPTIDE1,PEPTIDE1,9:R3-13:R3$$$V2.0) | 0.7 | < 400
CC(=O)N[C@@H](Cc1c[nH]c2ccccc12)C(=O)N(C)[C@@H](C)C(=O)N[C@@H](CCC(N)=O)C(=O)N[C@H]1CCCCNC(=O)CC[C@@H](C(=O)N[C@@H](Cc2c[nH]cn2)C(=O)N[C@H](C(=O)N[C@@H](CCC(N)=O)C(=O)N[C@@H](CCCNC(=N)N)C(=O)N[C@H](C(=O)N[C@@H](Cc2c[nH]c3ccccc23)C(=O)NCC(N)=O)C(C)C)C(C)C)NC(=O)[C@H](CC(=O)O)NC(=O)[C@H](CC(C)C)NC(=O)[C@H](C2CCCCC2)NC1=O [compound 421] (HELM PEPTIDE1{[ac].W.[meA].Q.K.[O=C([C@@H](N[*:1])C1CCCCC1)[*:2]].L.D.E.H.V.Q.R.V.W.G.[am]}$PEPTIDE1,PEPTIDE1,5:R3-9:R3$$$V2.0) | 0.7 | < 400
CC[C@H](C)[C@@H]1NC(=O)[C@H](CC(C)C)NC(=O)[C@H](Cc2ccccc2)NC(=O)[C@H](Cc2c[nH]c3ccccc23)NC(=O)[C@@H](N)CCCCNC(=O)CCCCNC(=O)C[C@@H](C(=O)O)NC(=O)[C@H](Cc2c[nH]c3ccccc23)NC(=O)[C@H](C)NC(=O)[C@H](CS)NC1=O [compound 248] (HELM PEPTIDE1{K.W.F.L.I.C.A.W.[O=C(O)[C@H](CC(=O)[*:2])N[*:1]].[O=C(CCCCN[*:1])[*:2]]}$PEPTIDE1,PEPTIDE1,1:R3-10:R2$$$V2.0) | – | > 30000
CC[C@H](C)[C@@H]1NC(=O)[C@H](CC(C)C)NC(=O)[C@H](Cc2ccccc2)NC(=O)[C@H](Cc2c[nH]c3ccccc23)NC(=O)[C@@H](N)CCCCNC(=O)CC[C@@H](C(=O)NCC(=O)O)NC(=O)[C@H](Cc2ccccc2)NC(=O)[C@H](CO)NC1=O [compound 227] (HELM PEPTIDE1{K.W.F.L.I.S.F.E.G}$PEPTIDE1,PEPTIDE1,1:R3-8:R3$$$V2.0) | 0.5 | 1000 to 10000
